Results: PubChem BioAssay AID1963825 (Molecular Pharmacology Branch, DTP, NCI, 2024)

Assay: Anticancer human tumor 997537-175-T-J1-PDC patient-derived colon adenocarcinoma cell line growth inhibition [POLQ]
Details: 997537-175-T-J1-PDC complex spheroid viability, combination with POLQ inhibitors; for IC50: curve of first compound; for viability, T/C: stronger effect = lower value
Procedure, shortened: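 Complex spheroid viability model combining PDC tumour cells with endothelial (HUVEC) and MSC stromal cells. Novobiocin, ART-558 or RP6685 were tested singly and in combination with standard and investigational anticancer drugs. Each was titrated in half-log steps from near clinical Cmax, or from 10 microM where Cmax was unknown.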

[1] = second compound 0.0316 µM, first compound 0.0316 µM
[2] = second compound 0.0316 µM, first compound 0.1 µM
[3] = second compound 0.0316 µM, first compound 0.316 µM
[4] = second compound 0.0316 µM, first compound 1 µM
[5] = second compound 0.0316 µM, first compound 3.16 µM
[6] = second compound 0.0316 µM, first compound 10 µM
[7] = second compound 0.1 µM, first compound 0.0316 µM
[8] = second compound 0.1 µM, first compound 0.1 µM
[9] = second compound 0.1 µM, first compound 0.316 µM
[10] = second compound 0.1 µM, first compound 1 µM
[11] = second compound 0.1 µM, first compound 3.16 µM
[12] = second compound 0.1 µM, first compound 10 µM
[13] = second compound 0.316 µM, first compound 0.0316 µM
[14] = second compound 0.316 µM, first compound 0.1 µM
[15] = second compound 0.316 µM, first compound 0.316 µM
[16] = second compound 0.316 µM, first compound 1 µM
[17] = second compound 0.316 µM, first compound 3.16 µM
[18] = second compound 0.316 µM, first compound 10 µM
[19] = second compound 1 µM, first compound 0.0316 µM
[20] = second compound 1 µM, first compound 0.1 µM
[21] = second compound 1 µM, first compound 0.316 µM
[22] = second compound 1 µM, first compound 1 µM
[23] = second compound 1 µM, first compound 3.16 µM
[24] = second compound 1 µM, first compound 10 µM
[25] = second compound 3.16 µM, first compound 0.0316 µM
[26] = second compound 3.16 µM, first compound 0.1 µM
[27] = second compound 3.16 µM, first compound 0.316 µM
[28] = second compound 3.16 µM, first compound 1 µM
[29] = second compound 3.16 µM, first compound 3.16 µM
[30] = second compound 3.16 µM, first compound 10 µM
[31] = second compound 10 µM, first compound 0.0316 µM
[32] = second compound 10 µM, first compound 0.1 µM
[33] = second compound 10 µM, first compound 0.316 µM
[34] = second compound 10 µM, first compound 1 µM
[35] = second compound 10 µM, first compound 3.16 µM
[36] = second compound 10 µM, first compound 10 µM
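Further: luminescence signal used as a surrogate for viable cells; spheroids exposed to drugs for seven days before readout.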

SMILES: C=CC(=O)N1CCN(c2nc(=O)n(-c3c(C)ccnc3C(C)C)c3nc(-c4c(O)cccc4F)c(F)cc23)C(C)C1 (stereo not given) + Cc1cccc(N(C)C(=O)C2C(O)CCN2c2nc(C)cc(C(F)(F)F)c2C#N)c1
- IC50 (second compound 0.0316 µM): > 10 µM
- IC50 (second compound 0.1 µM): > 10 µM
- IC50 (second compound 0.316 µM): > 10 µM
- IC50 (second compound 1 µM): > 10 µM
- IC50 (second compound 3.16 µM): > 10 µM
- IC50 (second compound 10 µM): > 10 µM
- viability, T/C [1]: 98.6%
- viability, T/C [2]: 96.7%
- viability, T/C [3]: 102%
- viability, T/C [4]: 106%
- viability, T/C [5]: 96.3%
- viability, T/C [6]: 103%
- viability, T/C [7]: 104%
- viability, T/C [8]: 114%
- viability, T/C [9]: 92.2%
- viability, T/C [10]: 106%
- viability, T/C [11]: 96%
- viability, T/C [12]: 94.3%
- viability, T/C [13]: 101%
- viability, T/C [14]: 113%
- viability, T/C [15]: 108%
- viability, T/C [16]: 99.5%
- viability, T/C [17]: 102%
- viability, T/C [18]: 104%
- viability, T/C [19]: 105%
- viability, T/C [20]: 108%
- viability, T/C [21]: 111%
- viability, T/C [22]: 108%
- viability, T/C [23]: 105%
- viability, T/C [24]: 82.2%
- viability, T/C [25]: 103%
- viability, T/C [26]: 99.3%
- viability, T/C [27]: 98.6%
- viability, T/C [28]: 98.7%
- viability, T/C [29]: 93.9%
- viability, T/C [30]: 99.3%
- viability, T/C [31]: 102%
- viability, T/C [32]: 121%
- viability, T/C [33]: 94.8%
- viability, T/C [34]: 96.1%
- viability, T/C [35]: 79.8%
- viability, T/C [36]: 93.1%

SMILES: CC(C)n1c(=O)n(C)c2cnc3cc(F)c(-c4ccc(OCCCN5CCCCC5)nc4)cc3c21 + Cc1cccc(N(C)C(=O)C2C(O)CCN2c2nc(C)cc(C(F)(F)F)c2C#N)c1
- IC50 (second compound 0.0316 µM): > 10 µM
- IC50 (second compound 0.1 µM): > 10 µM
- IC50 (second compound 0.316 µM): > 10 µM
- IC50 (second compound 1 µM): > 10 µM
- IC50 (second compound 3.16 µM): > 10 µM
- IC50 (second compound 10 µM): > 10 µM
- viability, T/C [1]: 94.2%
- viability, T/C [2]: 91.7%
- viability, T/C [3]: 105%
- viability, T/C [4]: 97.5%
- viability, T/C [5]: 98.7%
- viability, T/C [6]: 82.7%
- viability, T/C [7]: 96.7%
- viability, T/C [8]: 106%
- viability, T/C [9]: 90.8%
- viability, T/C [10]: 98.6%
- viability, T/C [11]: 103%
- viability, T/C [12]: 81.3%
- viability, T/C [13]: 103%
- viability, T/C [14]: 99.9%
- viability, T/C [15]: 105%
- viability, T/C [16]: 103%
- viability, T/C [17]: 90.2%
- viability, T/C [18]: 87.7%
- viability, T/C [19]: 87.2%
- viability, T/C [20]: 102%
- viability, T/C [21]: 92.5%
- viability, T/C [22]: 86%
- viability, T/C [23]: 96.8%
- viability, T/C [24]: 91.2%
- viability, T/C [25]: 87.1%
- viability, T/C [26]: 96.3%
- viability, T/C [27]: 90.2%
- viability, T/C [28]: 80%
- viability, T/C [29]: 98.8%
- viability, T/C [30]: 73.6%
- viability, T/C [31]: 99.6%
- viability, T/C [32]: 101%
- viability, T/C [33]: 86.8%
- viability, T/C [34]: 83.8%
- viability, T/C [35]: 91.8%
- viability, T/C [36]: 76.6%

SMILES: CC1COCCN1c1cc(-c2ccnn2C)c2ccnc(-c3ccn[nH]3)c2n1 (stereo not given) + Cc1cccc(N(C)C(=O)C2C(O)CCN2c2nc(C)cc(C(F)(F)F)c2C#N)c1
- IC50 (second compound 0.0316 µM): > 10 µM
- IC50 (second compound 0.1 µM): > 10 µM
- IC50 (second compound 0.316 µM): 1.48 µM
- IC50 (second compound 1 µM): > 10 µM
- IC50 (second compound 3.16 µM): 0.761 µM
- IC50 (second compound 10 µM): > 10 µM
- viability, T/C [1]: 88.5%
- viability, T/C [2]: 86.1%
- viability, T/C [3]: 71.5%
- viability, T/C [4]: 43.5%
- viability, T/C [5]: 45.5%
- viability, T/C [6]: 63.2%
- viability, T/C [7]: 87.9%
- viability, T/C [8]: 87%
- viability, T/C [9]: 73.4%
- viability, T/C [10]: 53.4%
- viability, T/C [11]: 53.2%
- viability, T/C [12]: 54.7%
- viability, T/C [13]: 94.2%
- viability, T/C [14]: 93.5%
- viability, T/C [15]: 74%
- viability, T/C [16]: 50.5%
- viability, T/C [17]: 52.4%
- viability, T/C [18]: 45.3%
- viability, T/C [19]: 96.6%
- viability, T/C [20]: 84.9%
- viability, T/C [21]: 48.8%
- viability, T/C [22]: 47.1%
- viability, T/C [23]: 61.4%
- viability, T/C [24]: 65.2%
- viability, T/C [25]: 107%
- viability, T/C [26]: 80.8%
- viability, T/C [27]: 53.7%
- viability, T/C [28]: 30.5%
- viability, T/C [29]: 67.1%
- viability, T/C [30]: 48.6%
- viability, T/C [31]: 72.1%
- viability, T/C [32]: 80.7%
- viability, T/C [33]: 54.8%
- viability, T/C [34]: 42%
- viability, T/C [35]: 68.9%
- viability, T/C [36]: 50.1%

SMILES: CC1COCCN1c1cc(C2(S(C)(=N)=O)CC2)nc(-c2ccnc3[nH]ccc23)n1 (stereo not given) + Cc1cccc(N(C)C(=O)C2C(O)CCN2c2nc(C)cc(C(F)(F)F)c2C#N)c1
- IC50 (second compound 0.0316 µM): 9.37 µM
- IC50 (second compound 0.1 µM): > 10 µM
- IC50 (second compound 0.316 µM): 8.26 µM
- IC50 (second compound 1 µM): 7.19 µM
- IC50 (second compound 3.16 µM): > 10 µM
- IC50 (second compound 10 µM): > 10 µM
- viability, T/C [1]: 97.9%
- viability, T/C [2]: 106%
- viability, T/C [3]: 102%
- viability, T/C [4]: 98.8%
- viability, T/C [5]: 83.6%
- viability, T/C [6]: 47.6%
- viability, T/C [7]: 97.5%
- viability, T/C [8]: 96.6%
- viability, T/C [9]: 101%
- viability, T/C [10]: 83.6%
- viability, T/C [11]: 63.5%
- viability, T/C [12]: 64.7%
- viability, T/C [13]: 110%
- viability, T/C [14]: 107%
- viability, T/C [15]: 90.8%
- viability, T/C [16]: 91.6%
- viability, T/C [17]: 57.9%
- viability, T/C [18]: 49.1%
- viability, T/C [19]: 106%
- viability, T/C [20]: 104%
- viability, T/C [21]: 80.3%
- viability, T/C [22]: 78.9%
- viability, T/C [23]: 44.7%
- viability, T/C [24]: 52.7%
- viability, T/C [25]: 111%
- viability, T/C [26]: 109%
- viability, T/C [27]: 98.5%
- viability, T/C [28]: 87.3%
- viability, T/C [29]: 78.3%
- viability, T/C [30]: 70.8%
- viability, T/C [31]: 88.3%
- viability, T/C [32]: 99.8%
- viability, T/C [33]: 86%
- viability, T/C [34]: 92.7%
- viability, T/C [35]: 68.5%
- viability, T/C [36]: 63.5%

SMILES: COc1ccc([C@@H](O)c2cc(-c3ncnc4cc(N5CCOCC5)ccc34)c(F)cc2Cl)nn1 + Cc1cccc(N(C)C(=O)C2C(O)CCN2c2nc(C)cc(C(F)(F)F)c2C#N)c1
- IC50 (second compound 0.0316 µM): > 10 µM
- IC50 (second compound 0.1 µM): > 10 µM
- IC50 (second compound 0.316 µM): > 10 µM
- IC50 (second compound 1 µM): > 10 µM
- IC50 (second compound 3.16 µM): > 10 µM
- IC50 (second compound 10 µM): > 10 µM
- viability, T/C [1]: 102%
- viability, T/C [2]: 108%
- viability, T/C [3]: 103%
- viability, T/C [4]: 108%
- viability, T/C [5]: 101%
- viability, T/C [6]: 84.3%
- viability, T/C [7]: 92.3%
- viability, T/C [8]: 111%
- viability, T/C [9]: 99.8%
- viability, T/C [10]: 106%
- viability, T/C [11]: 101%
- viability, T/C [12]: 77.7%
- viability, T/C [13]: 104%
- viability, T/C [14]: 109%
- viability, T/C [15]: 106%
- viability, T/C [16]: 104%
- viability, T/C [17]: 95.3%
- viability, T/C [18]: 82.9%
- viability, T/C [19]: 98.5%
- viability, T/C [20]: 102%
- viability, T/C [21]: 91.7%
- viability, T/C [22]: 109%
- viability, T/C [23]: 85.7%
- viability, T/C [24]: 69.7%
- viability, T/C [25]: 80.8%
- viability, T/C [26]: 93.4%
- viability, T/C [27]: 110%
- viability, T/C [28]: 106%
- viability, T/C [29]: 88.8%
- viability, T/C [30]: 72.7%
- viability, T/C [31]: 101%
- viability, T/C [32]: 109%
- viability, T/C [33]: 110%
- viability, T/C [34]: 112%
- viability, T/C [35]: 107%
- viability, T/C [36]: 69.8%
